The subject of assay [1] is patients with persistent atrial fibrillation. Conditions: cited from earlier work; for effectiveness in increasing the time to a recurrence of atrial fibrillation relative to sotalol / increasing the time to a recurrence of atrial fibrillation: P<0.001; for number of strokes per 100 patient-years of follow-up: persistent atrial fibrillation, placebo 1.91, calculated from the article of Singh et al, page 1866; for increasing the time to a recurrence of atrial fibrillation: versus placebo.

The test system of assay [2] is patients who developed permanent atrial fibrillation/flutter. In words: prospective, multinational, double-blind, randomized, multi-center, placebo-controlled, parallel group trial of dronedarone hydrochloride. The format is in vivo. The protocol: • Patients in permanent atrial fibrillation • Patients in unstable hemodynamic condition such as acute pulmonary edema within 12 hours prior to start of study medication; cardiogenic shock; treatment with IV pressor agents; patients on respirator; congestive heart failure of stage NYHA IV within the last 4 weeks; uncorrected, hemodynamically significant primary obstructive valvular disease; hemodynamically significant obstructive cardomyopathy; a cardiac operation or revascularization procedure within 4 weeks preceding randomization • Planned major non-cardiac or cardiac surgery or procedures including surgery for valvular heart disease, coronary artery bypass graft (CABG), percutaneous coronary intervention (PCI), or on urgent cardiac transplantation list • Acute myocarditis or constrictive pericarditis • Bradycardia < 50 bpm and/or PR-interval ≥ 0.28 sec on the last 12-lead ECG. • Significant sinus node disease (documented pause of 3 seconds or more) or 2nd or 3rd degree atrioventricular block (AV-block) unless treated with a pacemaker.

A further assay concerns stroke. Conditions: ATHENA trial; cited from earlier work.

The source of these data is patent EP2387997A1, “Use of dronedarone for the preparation of a medicament for the prevention of cardiovascular events in patients who developed permanent atrial fibrillation throughout the period the dronedarone is administered” (SANOFI, priority 2010, dated 2011).

Where a name gives a salt, the structure may show the parent alone. Read-outs that look alike come from different tables or passages of the source.

For `CCCCc1oc2ccccc2c1C(=O)c1cc(I)c(OCCN(CC)CC)c(I)c1` [amiodarone], the “effectiveness in increasing the time to a recurrence of atrial fibrillation relative to sotalol” value in assay [1] (analysis according to the treatment actually received) was “four times as effective”. For the same compound, the “effectiveness in increasing the time to a recurrence of atrial fibrillation relative to sotalol” value in assay [1] (intention-to-treat analysis) was “six times as effective as sotalol”. Besides, in assay [1], the “number of strokes per 100 patient-years of follow-up” value is 2.06 per 100 patient-years and the “increasing the time to a recurrence of atrial fibrillation” value is recorded as “significantly more effective than placebo”.
`CCCCc1oc2ccc(NS(C)(=O)=O)cc2c1C(=O)c1ccc(OCCCN(CCCC)CCCC)cc1` [dronedarone hydrochloride]: the “events (stroke, Acute Coronary Syndrome (ACS) or cardiovascular death)” value in assay [2] (among the 178 patients who developed permanent atrial fibrillation/flutter on dronedarone hydrochloride, placebo group 24 events (295 patients)) was 12 events. In assay [2] (dronedarone versus placebo, Cox's proportional hazard model, patients who developed permanent atrial fibrillation/flutter), the “Calculated relative risk of stroke, Acute Coronary Syndrome (ACS) or cardiovascular death” value is listed as 0.805. Moreover, in assay [2] (of 2301 patients treated with dronedarone hydrochloride (400 mg of base, one tablet morning and evening, 12 to 30 months), placebo group 295), the “patients developed permanent atrial fibrillation/flutter” value was determined as 178 patients. Further, the “decrease of the relative risk of stroke, Acute Coronary Syndrome (ACS) or cardiovascular death” value in assay [2] (x = 1-RR, versus placebo, patients who developed permanent atrial fibrillation/flutter) is reported as 20%.
For `CCCCc1oc2ccc(NS(C)(=O)=O)cc2c1C(=O)c1ccc(OCCCN(CCCC)CCCC)cc1` [dronedarone, 2-n-butyl-3-[4-(3-di-n-butylaminopropoxy)benzoyl]-5-methylsulfonamido-benzofuranne], the incidence of stroke entry with stroke is reported as “ability to reduce the incidence of stroke”.
As for `CC(C)NCC(O)c1ccc(NS(C)(=O)=O)cc1` (centres unmarked) [sotalol], in assay [1], the “number of strokes per 100 patient-years of follow-up” value is reported as 2.71 per 100 patient-years and the “increasing the time to a recurrence of atrial fibrillation” value is given as “significantly more effective than placebo”.
